# Results as given in patent US20190345505A1, “METHODS FOR REGULATING EXTRACTABLE PROANTHOCYANIDINS (PAS) IN PLANTS BY AFFECTING LEUCOANTHOCYANIDIN REDUCTASE (LAR)” (University of North Texas, priority 2016, published 2019).
# Legend:
# [1] = molecular target: T1, LAR from Desmodium uncinatum (Desmodium uncinatum, UniProt Q84V83); details: Tanner et al. 2003; read-out: reported Km of LAR towards leucocyanidin; cited from earlier work
# T1 sequence (Q84V83 1-382): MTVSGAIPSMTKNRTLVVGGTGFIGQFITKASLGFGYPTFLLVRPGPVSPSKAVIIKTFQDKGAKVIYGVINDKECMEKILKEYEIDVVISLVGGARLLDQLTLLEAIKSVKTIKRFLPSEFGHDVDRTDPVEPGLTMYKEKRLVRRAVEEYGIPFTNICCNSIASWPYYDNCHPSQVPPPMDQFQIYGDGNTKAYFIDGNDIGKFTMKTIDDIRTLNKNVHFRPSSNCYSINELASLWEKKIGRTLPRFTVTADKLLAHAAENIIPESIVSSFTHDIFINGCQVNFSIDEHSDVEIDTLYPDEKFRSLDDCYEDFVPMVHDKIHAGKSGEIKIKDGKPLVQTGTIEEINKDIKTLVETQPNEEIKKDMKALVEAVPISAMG
# mutated LAR (LAR/K143G) = assay: Conversion of 4β-(S-cysteinyl)-epicatechin to epicatechin by mutated LAR (negative control); assay type: biochemical, Medicago truncatula; details: 40 μM substrate, 50 μM NADPH, 5 μg protein, 1 h, room temperature
# Experimental: The full length LAR cDNA was cloned into pMal-c5x vector (New England Biolab) at the XmnI and BamHI sites. Mutations, which convert the lysine 143 codon to a glycine codon, were introduced into LAR cDNA by over-lapping PCR. The expression constructs were transformed into E. coli strain Rosetta™ 2(DE3)pLysS (EMD Millipore) competent cells. Transformed bacteria were grown in LB medium supplemented with 0.2% glucose to OD 600 of 0.5, and IPTG was added at 0.3 mM to induce protein expression. Bacteria were harvested after 4 h induction. LAR proteins were purified with amylose resin (NEB, E8021) following the manufacturer's protocol. Briefly, bacteria were lysed by sonication at 4° C. in extraction buffer (20 mM Tris pH 7.0, 200 mM NaCl, 1 mM DTT, 1 mM PMSF). […]
# The above analyses indicate that the 21 minute fraction above contains cysteine and glucuronic acid conjugates of epicatechin, as well as a glucoside conjugate of epicatechin cysteine. Of these compounds, epicatechin cysteine was determined to be the best candidate for being a substrate for LAR. […] The ethyl acetate extract was dried under vacuum, dissolved in 50 μL water and analyzed by UPLC/MS.
# Reactions without NADPH or LAR, with NADP^+, and with mutated LAR (LAR/K143G) were run in parallel as negative controls. Reactions were analyzed by UPLC/MS in negative mode. […] Epicatechin-cysteine content was quantified by EIC. […]
# DMACA reactivity = assay type: physicochemical; details: Five μL of 1 mM compound added to 200 mL 0.2% DMACA stain solution
# Experimental: Seeds of the lar mutant accumulated more than twice the level of 4β-(S-cysteinyl)-epicatechin than wild-type plants (FIGS. 14B and 14C), whereas none was detected in the anr mutant, and MYB5 over-expressing hairy roots accumulated more than three times the level of epicatechin-cysteine found in MYB14 over-expressing hairy roots. […] DMACA reactivity of epicatechin-cysteine was also measured. Five μL of 1 mM epicatechin or epicatechin-cysteine were added to 200 mL 0.2% DMACA stain solution. OD values of absorbance at 640 nm were measured as: Epicatechin=OD 0.71, Epicatechin-cysteine=OD 0.34, and Blank=OD 0.05. Epicatechin-cysteine reacted with DMACA reagent to produce a less intense blue color than epicatechin, consistent with the weak DMACA staining of lar mutant seeds.
SMILES,Km [1] [µM],"activity of mutated LAR on substrate (epicatechin formation, UPLC/MS) (mutated LAR (LAR/K143G))",OD values of absorbance at 640 nm (DMACA reactivity) (DMACA reactivity) [OD]
Oc1cc(O)c2c(c1)OC(c1ccc(O)c(O)c1)C(O)C2O (stereo not drawn) [leucocyanidin],6,,
N[C@@H](CS[C@H]1c2c(O)cc(O)cc2O[C@H](c2ccc(O)c(O)c2)[C@@H]1O)C(=O)O [4β-(S-cysteinyl)-epicatechin],,no activity,0.34
